Values quoted from earlier work in patent publication US8252791B2, “Purine compounds as cannabinoid receptor blockers” (Jenrin Discovery, Inc., priority 2008, dated 2012).

Settings: patients with type 2 diabetes not treated with other anti-diabetic medications; after six months of treatment; baseline value 7.9; placebo group 0.3%

Compound: Cc1c(C(=O)NN2CCCCC2)nn(-c2ccc(Cl)cc2Cl)c1-c1ccc(Cl)cc1 [rimonabant]
- HbA1c levels lowered: 0.8%
